Measured values reported in patent US9533985B2, “Sulfonamide derivative and medicinal use thereof” (EA Pharma Co., Ltd., priority 2012, dated 2017).

Target: α4β7 integrin (Homo sapiens (Human), UniProt P13612+P26010)
Experiment: MAdCAM-1/α4β7 integrin binding inhibitory activity evaluation test in the presence of serum (2)
Assay type: cell-based
Conditions: RPMI-8866 cells binding to mouse MAdCAM-1/Fc, same manner as Test (3), read-out: α4β7 Rank of activity with serum added
Experimental: The ability of test substances to inhibit the binding of a human B cell line, RPMI-8866, which is known to express α4β7 integrin, to MAdCAM-1 was measured.
To 96-well microtiter plates, recombinant mouse MAdCAM-1/Fc (R&D systems) solution (1 μg/mL) diluted with buffer A (carbonate buffer, pH 9.6) was added at 50 μL/well, followed by incubation at 4° C. overnight. After washing once with PBS, Block Ace (Snow Brand Milk Products Company, Limited) was added at 150 μL/well, followed by incubation at room temperature for 2 hours. After removal, washing was conducted once with PBS.
100 μL of each test substance diluted with a binding buffer (DMEM containing 40 mM HEPES, 0.2% BSA, and 4 mM MnCl2) to various concentrations and 100 μL of RPMI-8866 cells (2×10^6 cell/mL) were added to plates coated with MAdCAM-1/Fc (5×10^5 cells/well) with human serum being contained at a final concentration of 50%, followed by incubation at 30° C. for 15 minutes to 60 minutes. After the cells were bound to each well, unbound cells were removed by washing with PBS. To the plates, buffer C (PBS containing 1.5% Triton X-100) was added at 50 μL/well to lyse the bound RPMI-8866 cells. To 30 μL of the cell lysate, 30 μL of Substrate Buffer (Promega, CytoTox 96 Non-Radioactive Cytotoxicity Assay) was added, and the reaction was allowed to proceed at room temperature in a dark place for 30 minutes. To each well, 30 μL of Stop Solution (Promega, CytoTox 96 Non-Radioactive Cytotoxicity Assay) was added, and the absorbance at 490 nm was measured by using a plate reader. Here, by the obtained absorbance, the activity of the lactate dehydrogenase (LDH) dissolved into the supernatant of each well was detected. In other words, the absorbance was proportional to the number of the RPMI-8866 cells bound to MAdCAM-1 and remaining on the plate. The test was duplicated. The binding ratios of the cells at various concentrations were determined, with the absorbance of a well containing no test substance taken as 100%. Then, the concentration IC50, at which 50% binding inhibition was achieved, was calculated.
The MAdCAM-1/α4β7 integrin binding inhibitory activity in the presence of serum was measured in the same manner as in Test (3) described above. […] The VCAM-1/α4β1 integrin binding inhibitory activity evaluation test and the MAdCAM-1/α4β7 integrin binding inhibitory activity evaluation test were carried out according to the methods described in Tests (1) and (2) described above.

Chain of α4β7 integrin (P13612 34-1032): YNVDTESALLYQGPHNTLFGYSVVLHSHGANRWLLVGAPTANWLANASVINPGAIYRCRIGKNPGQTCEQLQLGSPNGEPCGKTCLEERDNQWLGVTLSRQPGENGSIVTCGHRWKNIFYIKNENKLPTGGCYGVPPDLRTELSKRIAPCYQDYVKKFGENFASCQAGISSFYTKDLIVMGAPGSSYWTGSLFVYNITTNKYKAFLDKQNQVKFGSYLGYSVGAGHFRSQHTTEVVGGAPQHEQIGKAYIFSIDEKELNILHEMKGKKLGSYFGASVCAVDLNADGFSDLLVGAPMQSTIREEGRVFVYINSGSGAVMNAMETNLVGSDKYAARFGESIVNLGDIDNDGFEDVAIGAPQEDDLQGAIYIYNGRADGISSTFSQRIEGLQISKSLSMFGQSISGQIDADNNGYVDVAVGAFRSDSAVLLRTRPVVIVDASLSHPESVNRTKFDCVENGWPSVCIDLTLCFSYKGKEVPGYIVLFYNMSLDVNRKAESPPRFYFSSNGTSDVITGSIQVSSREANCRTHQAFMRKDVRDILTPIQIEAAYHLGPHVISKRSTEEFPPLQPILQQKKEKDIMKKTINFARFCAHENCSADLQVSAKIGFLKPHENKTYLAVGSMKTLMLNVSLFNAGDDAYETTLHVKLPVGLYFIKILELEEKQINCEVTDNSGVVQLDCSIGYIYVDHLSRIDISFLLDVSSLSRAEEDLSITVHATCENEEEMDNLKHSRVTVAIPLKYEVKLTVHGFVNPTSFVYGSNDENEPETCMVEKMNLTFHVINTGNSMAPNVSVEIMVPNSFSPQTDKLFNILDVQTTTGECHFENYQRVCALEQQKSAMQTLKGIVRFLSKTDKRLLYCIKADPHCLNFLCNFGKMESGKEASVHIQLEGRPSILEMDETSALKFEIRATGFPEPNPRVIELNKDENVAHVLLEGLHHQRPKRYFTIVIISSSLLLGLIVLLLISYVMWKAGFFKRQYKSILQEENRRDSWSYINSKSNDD
Chain of α4β7 integrin (P26010 20-798): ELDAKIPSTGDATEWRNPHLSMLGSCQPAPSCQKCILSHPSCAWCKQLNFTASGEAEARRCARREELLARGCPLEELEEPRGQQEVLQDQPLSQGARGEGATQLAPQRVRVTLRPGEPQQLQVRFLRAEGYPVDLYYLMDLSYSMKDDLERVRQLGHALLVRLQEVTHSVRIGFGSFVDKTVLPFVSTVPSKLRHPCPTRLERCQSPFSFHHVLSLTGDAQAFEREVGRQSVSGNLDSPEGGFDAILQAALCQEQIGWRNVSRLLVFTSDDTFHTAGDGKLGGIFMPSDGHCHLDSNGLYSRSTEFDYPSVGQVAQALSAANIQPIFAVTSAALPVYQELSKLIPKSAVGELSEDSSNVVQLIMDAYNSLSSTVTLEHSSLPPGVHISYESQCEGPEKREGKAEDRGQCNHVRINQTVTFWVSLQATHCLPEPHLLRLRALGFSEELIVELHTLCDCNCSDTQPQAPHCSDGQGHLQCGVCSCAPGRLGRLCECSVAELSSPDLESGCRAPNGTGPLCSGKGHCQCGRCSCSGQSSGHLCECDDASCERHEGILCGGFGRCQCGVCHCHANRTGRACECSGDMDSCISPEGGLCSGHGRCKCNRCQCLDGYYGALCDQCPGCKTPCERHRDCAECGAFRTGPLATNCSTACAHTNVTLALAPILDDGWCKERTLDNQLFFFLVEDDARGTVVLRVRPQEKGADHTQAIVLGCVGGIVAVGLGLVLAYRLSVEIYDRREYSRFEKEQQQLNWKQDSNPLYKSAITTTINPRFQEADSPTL

Compound	IC50 [nM]
Cn1c(=O)n(-c2ccc(C[C@H](NC(=O)c3cc(F)c(NS(=O)(=O)c4ccccc4)cc3F)C(=O)O)nc2)c(=O)c2ccncc21 [Example 137, N-{2,5-Difluoro-4-[(phenylsulfonyl)amino]benzoyl}-3-[5-(1-methyl-2,4-dioxo-1,4-dihydropyrido[3,4-d]pyrimidin-3(2H)-yl)pyridin-2-yl]-L-alanine]	50 to 200
Cn1c(=O)n(-c2ccc(C[C@H](NC(=O)c3cc(F)c(NS(=O)(=O)c4ccccn4)cc3F)C(=O)O)nc2)c(=O)c2ccncc21 [Example 138, N-{2,5-Difluoro-4-[(pyridin-2-yl-sulfonyl)amino]benzoyl}-3-[5-(1-methyl-2,4-dioxo-1,4-dihydropyrido[3,4-d]pyrimidin-3(2H)-yl)pyridin-2-yl]-L-alanine]	50 to 200
Cn1c(=O)n(-c2ccc(C[C@H](NC(=O)c3ccc(NS(=O)(=O)c4ccco4)cc3F)C(=O)O)nc2)c(=O)c2ccncc21 [Example 139, N-{2-Fluoro-4-[(2-furylsulfonyl)amino]benzoyl}-3-[5-(1-methyl-2,4-dioxo-1,4-dihydropyrido[3,4-d]pyrimidin-3(2H)-yl)pyridin-2-yl]-L-alanine]	10 to 50
Cn1c(=O)n(-c2ccc(C[C@H](NC(=O)c3cc(F)c(NS(=O)(=O)c4ccco4)cc3F)C(=O)O)nc2)c(=O)c2ccncc21 [Example 140, N-{2,5-Difluoro-4-[(2-furylsulfonyl)amino]benzoyl}-3-[5-(1-methyl-2,4-dioxo-1,4-dihydropyrido[3,4-d]pyrimidin-3(2H)-yl)pyridin-2-yl]-L-alanine]	10 to 50
CC(=O)c1ccc(S(=O)(=O)Nc2cc(F)c(C(=O)N[C@@H](Cc3ccc(-n4c(=O)c5ccncc5n(C)c4=O)cn3)C(=O)O)cc2F)cc1 [Example 141, N-(4-{[(4-Acetylphenyl)sulfonyl]amine}-2,5-difluorobenzoyl)-3-[5-(1-methyl-2,4-dioxo-1,4-dihydropyrido[3,4-d]pyrimidin-3(2H)-yl)pyridin-2-yl]-L-alanine]	10 to 50
Cn1c(=O)n(-c2ccc(C[C@H](NC(=O)c3ccc(NS(=O)(=O)c4ccccn4)cc3F)C(=O)O)nc2)c(=O)c2ccncc21 [Example 142, N-{2-Fluoro-4-[(pyridin-2-yl-sulfonyl)amino]benzoyl}-3-[5-(1-methyl-2,4-dioxo-1,4-dihydropyrido[3,4-d]pyrimidin-3(2H)-yl)pyridin-2-yl]-L-alanine]	10 to 50
COc1ccccc1S(=O)(=O)Nc1cc(F)c(C(=O)N[C@@H](Cc2ccc(-n3c(=O)c4ccncc4n(C)c3=O)cc2)C(=O)O)c(F)c1 [Example 143, N-(2,6-Difluoro-4-{[(2-methoxyphenyl)sulfonyl]amino}benzoyl)-4-(1-methyl-2,4-dioxo-1,4-dihydropyrido[3,4-d]pyrimidin-3(2H)-yl)-L-phenylalanine]	≤ 10
Cn1c(=O)n(-c2ccc(C[C@H](NC(=O)c3ccc(NS(=O)(=O)c4ccc5c(c4)C(=O)CC5)cc3F)C(=O)O)nc2)c(=O)c2ccncc21 [Example 144, N-(2-Fluoro-4-{[(3-oxo-2,3-dihydro-1H-inden-5-yl)sulfonyl]amino}benzoyl)-3-[5-(1-methyl-2,4-dioxo-1,4-dihydropyrido[3,4-d]pyrimidin-3(2H)-yl)pyridin-2-yl]-L-alanine]	50 to 200
COc1ccccc1S(=O)(=O)Nc1cc(F)c(C(=O)N[C@@H](Cc2ccc(-n3c(=O)c4ccncc4n(C)c3=O)cn2)C(=O)O)c(F)c1 [Example 145, N-(2,6-Difluoro-4-{[(2-methoxyphenyl)sulfonyl]amino}benzoyl)-3-[5-(1-methyl-2,4-dioxo-1,4-dihydropyrido[3,4-d]pyrimidin-3(2H)-yl)pyridin-2-yl]-L-alanine]	≤ 10
CCOc1ccccc1S(=O)(=O)Nc1cc(F)c(C(=O)N[C@@H](Cc2ccc(-n3c(=O)c4ccncc4n(C)c3=O)cn2)C(=O)O)c(F)c1 [Example 146, N-(4-{[(2-Ethoxyphenyl)sulfonyl]amino}-2,6-difluorobenzoyl)-3-[5-(1-methyl-2,4-dioxo-1,4-dihydropyrido[3,4-d]pyrimidin-3(2H)-yl)pyridin-2-yl]-L-alanine]	10 to 50
COc1cc2c(=O)n(-c3ccc(C[C@H](NC(=O)c4ccc(NS(=O)(=O)c5ccco5)cc4F)C(=O)O)cc3)c(=O)n(C)c2cn1 [Example 147, N-{2-Fluoro-4-[(2-furylsulfonyl)amino]benzoyl}-4-(6-methoxy-1-methyl-2,4-dioxo-1,4-dihydropyrido[3,4-d]pyrimidin-3(2H)-yl)-L-phenylalanine]	10 to 50
Cn1c(=O)n(-c2ccc(C[C@H](NC(=O)c3c(F)cc(NS(=O)(=O)c4ccc(-c5ccco5)cc4)cc3F)C(=O)O)nc2)c(=O)c2ccncc21 [Example 148, N-[2,6-Difluoro-4-({[4-(2-furyl)phenyl]sulfonyl}amino)benzoyl]-3-[5-(1-methyl-2,4-dioxo-1,4-dihydropyrido[3,4-d]pyrimidin-3(2H)-yl)pyridin-2-yl]-L-alanine]	10 to 50
Cn1c(=O)n(-c2ccc(C[C@H](NC(=O)c3cc(F)c(NS(=O)(=O)c4ccco4)cc3F)C(=O)O)cc2)c(=O)c2ccncc21 [Example 149, N-{2,5-Difluoro-4-[(2-furylsulfonyl)amino]benzoyl}-4-(1-methyl-2,4-dioxo-1,4-dihydropyrido[3,4-d]pyrimidin-3(2H)-yl)-L-phenylalanine]	10 to 50
Cn1c(=O)n(-c2ccc(C[C@H](NC(=O)c3cc(F)c(NS(=O)(=O)c4ccco4)cc3F)C(=O)O)cn2)c(=O)c2ccncc21 [Example 150, N-{2,5-Difluoro-4-[(2-furylsulfonyl)amino]benzoyl}-3-[6-(1-methyl-2,4-dioxo-1,4-dihydropyrido[3,4-d]pyrimidin-3(2H)-yl)pyridin-3-yl]-L-alanine]	10 to 50
Cc1ccc(-c2ccc(S(=O)(=O)Nc3cc(F)c(C(=O)N[C@@H](Cc4ccc(-n5c(=O)c6ccncc6n(C)c5=O)cc4)C(=O)O)c(F)c3)nc2)cn1 [Example 151, N-(2,6-Difluoro-4-{[(6′-methyl-3,3′-bipyridin-6-yl)sulfonyl]amino}benzoyl)-4-(1-methyl-2,4-dioxo-1,4-dihydropyrido[3,4-d]pyrimidin-3(2H)-yl)-L-phenylalanine]	10 to 50
CCNC(=O)c1ccc(S(=O)(=O)Nc2cc(F)c(C(=O)N[C@@H](Cc3ccc(-n4c(=O)c5c(ncn5C)n(C)c4=O)cc3)C(=O)O)c(F)c2)cc1 [Example 152, 4-(3,7-Dimethyl-2,6-dioxo-2,3,6,7-tetrahydro-1H-purin-1-yl)-N-{4-[({4-[(ethylamino)carbonyl]phenyl}sulfonyl)amino]-2,6-difluorobenzoyl}-L-phenylalanine]	≤ 10
Cn1cnc2c1c(=O)n(-c1ccc(C[C@H](NC(=O)c3c(F)cc(NS(=O)(=O)c4ccc(-c5ncccn5)cn4)cc3F)C(=O)O)cc1)c(=O)n2C [Example 153, N-(2,6-Difluoro-4-{[(5-pyrimidin-2-yl-pyridin-2-yl)sulfonyl]amino}benzoyl)-4-(3,7-dimethyl-2,6-dioxo-2,3,6,7-tetrahydro-1H-purin-1-yl)-L-phenylalanine]	≤ 10
Cn1c(=O)n(-c2ccc(C[C@H](NC(=O)c3ncc(NS(=O)(=O)c4ccc(-c5ncccn5)cn4)cc3F)C(=O)O)cc2)c(=O)c2ccncc21 [Example 154, N-[(3-Fluoro-5-{[(5-pyrimidin-2-yl-pyridin-2-yl)sulfonyl]amino}pyridin-2-yl)carbonyl]-4-(1-methyl-2,4-dioxo-1,4-dihydropyrido[3,4-d]pyrimidin-3(2H)-yl)-L-phenylalanine]	10 to 50
